US20260262643A1, “HERBICIDAL BENZOXAZINES” (FMC CORPORATION, priority 2022, published 2026)

Tests used:
wheat [1] = test: Test C preemergence; type: in vivo, Triticum aestivum; details: 0 to 100 scale (0 no effect, 100 complete control)
Method in brief: (§1)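 Soil-applied (pre) and foliar (post, 1–2 leaf, 2–10 cm) sprays; surfactant-containing non-phytotoxic solvent vehicle; loam/sand substrate. Readout: visual % control at 10 d, greenhouse, versus untreated.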

kochia [2] = test: Test C postemergence; type: in vivo, Bassia scoparia; details: 10 days
Method in brief: as §1

corn [3] = test: Test C preemergence; type: in vivo, Zea mays; details: 0 to 100 scale (0 no effect, 100 complete control)
Method in brief: as §1

green foxtail [4] = test: Test C preemergence; type: in vivo, Setaria viridis; details: 0 to 100 scale (0 no effect, 100 complete control)
Method in brief: as §1

barnyardgrass [5] = test: Test C postemergence; type: in vivo, Echinochloa crusgalli; details: 10 days
Method in brief: as §1

oat, wild [6] = test: Test C preemergence; type: in vivo, Avena fatua; details: 0 to 100 scale (0 no effect, 100 complete control)
Method in brief: as §1

pigweed, palmer [7] = test: Test C preemergence; type: in vivo, Amaranthus palmeri; details: 0 to 100 scale (0 no effect, 100 complete control)
Method in brief: as §1

green foxtail [8] = test: Test C postemergence; type: in vivo, Setaria viridis; details: 10 days
Method in brief: as §1

blackgrass [9] = test: Test C postemergence; type: in vivo, Alopecurus myosuroides; details: 10 days
Method in brief: as §1

pigweed, palmer [10] = test: Test C postemergence; type: in vivo, Amaranthus palmeri; details: 10 days
Method in brief: as §1

horseweed = test: Test C postemergence; type: in vivo, Erigeron canadensis; details: 10 days
Method in brief: as §1

oat, wild [11] = test: Test C postemergence; type: in vivo, Avena fatua; details: 10 days
Method in brief: as §1

sedge, umbrella = test: Test D flooded paddy test; type: in vivo, Cyperus difformis; details: 250 g ai/ha, applied to paddy water, visual rating after 13 to 14 days, scale 0 to 100 (0 no effect, 100 complete control)
Method in brief: (§2)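 Plants at the 2-leaf stage were grown in pots flooded to 3 cm, and compound was applied directly into the paddy water, with depth kept throughout. After 13–14 days in a greenhouse, injury was rated visually against untreated controls on a 0–100 scale (100 = complete control); a dash means not tested.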

soybean [12] = test: Test C preemergence; type: in vivo, Glycine max; details: 0 to 100 scale (0 no effect, 100 complete control)
Method in brief: as §1

ducksalad = test: Test D flooded paddy test; type: in vivo, Heteranthera limosa; details: 250 g ai/ha, applied to paddy water, visual rating after 13 to 14 days, scale 0 to 100 (0 no effect, 100 complete control)
Method in brief: as §2

rice = test: Test D flooded paddy test; type: in vivo, Oryza sativa; details: 250 g ai/ha, applied to paddy water, visual rating after 13 to 14 days, scale 0 to 100 (0 no effect, 100 complete control)
Method in brief: as §2

galium = test: Test C postemergence; type: in vivo, Galium aparine; details: 10 days
Method in brief: as §1

barnyardgrass [13] = test: Test D flooded paddy test; type: in vivo, Echinochloa crus-galli; details: 250 g ai/ha, applied to paddy water, visual rating after 13 to 14 days, scale 0 to 100 (0 no effect, 100 complete control)
Method in brief: as §2

corn [14] = test: Test C postemergence; type: in vivo, Zea mays; details: 10 days
Method in brief: as §1

ragweed [15] = test: Test C postemergence; type: in vivo, Ambrosia artemisiifolia; details: 10 days
Method in brief: as §1

blackgrass [16] = test: Test C preemergence; type: in vivo, Alopecurus myosuroides; details: 0 to 100 scale (0 no effect, 100 complete control)
Method in brief: as §1

soybean [17] = test: Test C postemergence; type: in vivo, Glycine max; details: 10 days
Method in brief: as §1

kochia [18] = test: Test C preemergence; type: in vivo, Bassia scoparia; details: Preemergence, 500 g ai/ha; visual rating after 10 days, 0 to 100 scale (0 no effect, 100 complete control)
Method in brief: as §1

wheat [19] = test: Test C postemergence; type: in vivo, Triticum aestivum; details: 10 days
Method in brief: as §1

ryegrass, Italian [20] = test: Test C preemergence; type: in vivo, Lolium multiflorum; details: 0 to 100 scale (0 no effect, 100 complete control)
Method in brief: as §1

ryegrass, Italian [21] = test: Test C postemergence; type: in vivo, Lolium multiflorum; details: 10 days
Method in brief: as §1

ragweed [22] = test: Test C preemergence; type: in vivo, Ambrosia artemisiifolia; details: 0 to 100 scale (0 no effect, 100 complete control)
Method in brief: as §1

barnyardgrass [23] = test: Test C preemergence; type: in vivo, Echinochloa crusgalli; details: 0 to 100 scale (0 no effect, 100 complete control)
Method in brief: as §1

[24] = Preemergence, 500 g ai/ha, visual rating after 10 days
[25] = Test C, preemergence, 125 g ai/ha
[26] = 125 g ai/ha, postemergence, 0 to 100 scale, 0 no effect, 100 complete control
[27] = Postemergence, 500 g ai/ha, visual 0 to 100 scale (0 no effect, 100 complete control)

## COC[C@H]1CN(C(=O)c2cc(-n3cncn3)ccc2C)c2cccc(Cl)c2O1 [Compound 263]
Wheat [1]; [24]
  Plant response rating, Wheat: 40
Wheat [1]; [25]
  Wheat plant response rating: 20
Kochia [2]; [26]
  Plant response rating, Kochia: 70
Kochia [2]; [27]
  Plant response rating, Kochia: 70
Corn [3]; [24]
  Plant response rating, Corn: 60
Corn [3]; [25]
  Corn plant response rating: 20
Green foxtail [4]; [24]
  Plant response rating, Foxtail, Green: 100
Green foxtail [4]; [25]
  Foxtail, Green plant response rating: 90
Barnyardgrass [5]; [26]
  Plant response rating, Barnyardgrass: 70
Barnyardgrass [5]; [27]
  Plant response rating, Barnyardgrass: 90
oat, wild [6]; [24]
  Plant response rating, Oat, Wild: 70
oat, wild [6]; [25]
  Oat, Wild plant response rating: 30
pigweed, palmer [7]; [24]
  Plant response rating, Pigweed, Palmer: 100
pigweed, palmer [7]; [25]
  Pigweed, Palmer plant response rating: 70
Green foxtail [8]; [26]
  Plant response rating, Foxtail, Green: 80
Green foxtail [8]; [27]
  Plant response rating, Foxtail, Green: 90
Blackgrass [9]; [26]
  Plant response rating, Blackgrass: 80
Blackgrass [9]; [27]
  Plant response rating, Blackgrass: 90
pigweed, palmer [10]; [26]
  Plant response rating, Pigweed, Palmer: 40
pigweed, palmer [10]; [27]
  Plant response rating, Pigweed, Palmer: 80
horseweed; [26]
  Plant response rating, Horseweed: 0
horseweed; [27]
  Plant response rating, Horseweed: 20
oat, wild [11]; [26]
  Plant response rating, Oat, Wild: 10
oat, wild [11]; [27]
  Plant response rating, Oat, Wild: 50
sedge, umbrella
  Plant response rating, Sedge, Umbrella (Flood): 85
Soybean [12]; [24]
  Plant response rating, Soybean: 90
Soybean [12]; [25]
  Soybean plant response rating: 80
ducksalad
  Plant response rating, Ducksalad (Flood): 65
rice
  Plant response rating, Rice (Flood): 0
galium; [26]
  Plant response rating, Galium: 100
galium; [27]
  Plant response rating, Galium: 100
Barnyardgrass [13]
  Plant response rating, Barnyardgrass (Flood): 20
Corn [14]; [26]
  Plant response rating, Corn: 30
Corn [14]; [27]
  Plant response rating, Corn: 90
Ragweed [15]; [26]
  Plant response rating, Ragweed: 40
Ragweed [15]; [27]
  Plant response rating, Ragweed: 90
Blackgrass [16]; [24]
  Plant response rating, Blackgrass: 90
Blackgrass [16]; [25]
  Blackgrass plant response rating: 50
Soybean [17]; [26]
  Plant response rating, Soybean: 100
Soybean [17]; [27]
  Plant response rating, Soybean: 100
Kochia [18]
  Plant response rating, Kochia: 70
Wheat [19]; [26]
  Plant response rating, Wheat: 30
Wheat [19]; [27]
  Plant response rating, Wheat: 80
ryegrass, Italian [20]; [24]
  Plant response rating, Ryegrass, Italian: 90
ryegrass, Italian [20]; [25]
  Ryegrass, Italian plant response rating: 80
ryegrass, Italian [21]; [26]
  Plant response rating, Ryegrass, Italian: 80
ryegrass, Italian [21]; [27]
  Plant response rating, Ryegrass, Italian: 90
Ragweed [22]; [24]
  Plant response rating, Ragweed: 30
Ragweed [22]; [25]
  Ragweed plant response rating: 0
Barnyardgrass [23]; [24]
  Plant response rating, Barnyardgrass: 90
Barnyardgrass [23]; [25]
  Barnyardgrass plant response rating: 70
